Laboratory results reported in patent publication US8470835B2, “Pyrimidinecarboxamide derivatives as inhibitors of Syk kinase” (Glaxo Group Limited, priority 2009, dated 2013).
Like-named read-outs stand apart in the source and are kept apart here. Values belong to the molecule of their own block, whether it stands above or below them.

What was measured:
B lymphoma (BKS-2) = conditions: mouse, in vivo; cited from earlier work
[1] = test system: patients with relapsed or refractory B-Cell non-Hodgkin's lymphoma (NHL); conditions: cited from earlier work
allergic rhinitis [2] = conditions: phase II; cited from earlier work
allergic rhinitis [3] = conditions: dosed intranasally; cited from earlier work
Whole blood B cells = assay: CD69 whole blood assay (6); assay type: cell-based; conditions: Homo sapiens, B-cell, all data points
Procedure: 6. CD69 Whole Blood Assay
Whole blood B cells are stimulated ex-vivo using anti-IgM. […] The subsequent autophosphorylation of Syk leads to initiation of a signalling cascade resulting in B cell activation as indicated by expression of the activation marker CD69 on the cell surface. CD20/CD69+ve whole blood B cells are detected by flow cytometry.
Stimulation of Whole Blood B Cells with Anti-IqM
100 μl heparinised human blood was added to a 5 ml polypropylene tube containing 1 μl appropriately diluted compound solution and incubated for 30 min at 37° C. with 5% CO2. B cells were stimulated with 10 μl Fab′2 fragments of goat anti-human IgM (67.5 μg/ml final) for a further 3.5 h under the conditions previously described. The red blood cells were lysed and all other cells fixed by the addition of 2 ml Lyse/Fix buffer for 10 min at room temperature.
The cells were stained using a cocktail of mouse anti-human CD20 FITC and mouse anti-human CD69 APC conjugated antibodies. CD20/CD69+ve B cells present in the sample were detected by flow cytometry.
Compound dilutions were prepared using the Biomek 2000 automated robotic pipetting system.

[4] = target: Recombinant human VEGFR2 (KDR) (Homo sapiens (Human), UniProt P35968); assay: VEGFR2 (KDR) enzyme assay, TR-FRET kinase assay (3); assay type: biochemical; conditions: read-out: Vegfr enzyme assay (3) IC50
Sequence of Recombinant human VEGFR2 (KDR) (P35968 786-1356): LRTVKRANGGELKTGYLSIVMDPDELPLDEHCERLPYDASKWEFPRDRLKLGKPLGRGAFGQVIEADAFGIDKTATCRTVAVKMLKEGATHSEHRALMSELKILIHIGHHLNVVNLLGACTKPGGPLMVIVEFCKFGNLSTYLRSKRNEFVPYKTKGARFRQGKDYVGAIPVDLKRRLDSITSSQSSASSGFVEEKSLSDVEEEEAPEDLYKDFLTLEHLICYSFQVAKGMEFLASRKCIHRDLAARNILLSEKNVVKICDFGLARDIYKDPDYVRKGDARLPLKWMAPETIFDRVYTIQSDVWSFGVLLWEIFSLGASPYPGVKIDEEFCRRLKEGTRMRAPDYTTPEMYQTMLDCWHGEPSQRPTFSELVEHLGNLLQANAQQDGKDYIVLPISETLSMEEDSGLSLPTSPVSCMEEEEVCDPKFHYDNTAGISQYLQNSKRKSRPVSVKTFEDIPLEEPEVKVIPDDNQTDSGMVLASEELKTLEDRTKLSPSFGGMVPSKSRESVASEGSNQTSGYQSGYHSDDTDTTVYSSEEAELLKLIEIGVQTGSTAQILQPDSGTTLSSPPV
Procedure: VEGFR2 (KDR) Enzyme Assay—Time-resolved Fluorescence Resonance Energy Transfer Kinase Assay
Recombinant human VEGFR2 (KDR) intracellular domain (including the entire kinase domain) was expressed as a GST-6His-tagged protein*. The activity of VEGFR2 was assessed using a time-resolved fluorescence resonance energy transfer (TR-FRET) assay. Test compounds at the desired concentrations in 100% DMSO or 100% DMSO vehicle were added in 0.1 μL to a Greiner low-volume, 384-well, black plate (#784076). The plate was centrifuged minimally at 1000 RPM for 1 min. to force all of the liquid to the bottom of the wells prior to addition of any assay reagents. *Purification of Recombinant GST-6His-VEGFR2
VEGFR2 (100 nM typically) was activated at room temperature for 20 min. in the presence of 100 mM HEPES, pH 7.5, 10 mM MgCl2, 100 μM ATP, 300 μM DTT, and 0.1 mg/mL BSA. […] The solution of activated VEGFR2 was diluted 100-fold in 200 mM HEPES, pH 7.5, 0.2 mg/mL BSA, and 0.6 mM DTT. The VEGFR2 catalyzed reaction was initiated by the addition of 5 μL of the diluted, activated VEGFR2. […] After incubation for 10 min. at room temperature, phosphorylation of the biotinylated peptide substrate was measured as a ratio of specific 665 nm energy transfer signal to reference europium 615 nm signal using a Viewlux 1430 ultraHTS Microplate Imager (PerkinElmer, Turku, Finland).

Ramos B cells = assay: Ramos pErk assay (4); assay type: cell-based; conditions: Homo sapiens, anti-IgM stimulated
Procedure: Ramos B cells (human B cells of Burkitt's Lymphoma) are stimulated using anti-IgM. […] As a result Erk is phosphorylated and following cell lysis is detected by an immune capture assay.
Stimulation of Ramos Cells with Anti-IqM
Cells were plated at a density of 5×10^5/well in a volume of 25 μl assay medium (RPMI containing 10% heat inactivated foetal calf serum, 1% L-glutamine and 1% Penicillin/Streptomycin) in 96 v-well polypropylene plates. […] Cells are lysed by the addition of 55 μL 2×RIPA lysis buffer for 2 h at 4° C.
50 μl cell lysate was transferred to a 96 well MSD plate coated with anti-pErk1/2 (Thr/Thy: 202/204; 185/187) capture antibody and incubated for 16 hours at 4° C. The plate was washed and an anti-pErk detection antibody added (25 μl/well) for 2 h at room temperature. This was removed, 150 μL MSD read buffer added and the resultant electrochemiluminescence signal measured.

Compound: COc1cc(/C=C/C(=O)CC(=O)/C=C/c2ccc(O)c(OC)c2)ccc1O [curcumin]
tumour burden as measured by the total splenocyte number (B lymphoma (BKS-2)): significant reduction of tumour burden

Compound: COc1cc(Nc2ncc(F)c(Nc3ccc4c(n3)N(COP(=O)(O)O)C(=O)C(C)(C)O4)n2)cc(OC)c1OC [Example R788, fostamatinib disodium]
clinical efficacy ([1]; patients with DLBCL and CLL/SLL): therapeutic benefit
tolerability in patients ([1]; relapsed or refractory B-Cell NHL): well-tolerated

Compound: Oc1cccc(Nc2ncc(F)c(Nc3cccc(O)c3)n2)c1 [Example R112]
efficacy versus placebo (allergic rhinitis [2]): lack of efficacy versus placebo
change in PGD2 (allergic rhinitis [3]): statistically significant decrease
clinical safety (allergic rhinitis [3]): safe across a range of indicators

IC50 (Whole blood B cells; read-out: CD69 whole blood assay (6) IC50): 500 nM
IC50 (Whole blood B cells; read-out: CD69 whole blood assay (6) pIC50 (converted)): 501 nM
IC50 [4]: 6300 nM
IC50 (Ramos B cells; read-out: RAMOS pErk assay (4) IC50): 32 nM
IC50 (Ramos B cells; read-out: RAMOS pErk assay (4) pIC50 (converted)): 31.6 nM
Compound: Cc1cccc(Nc2nc(N[C@@H]3CCCC[C@@H]3N)ncc2C(N)=O)c1 [Reference example 1]
